One assay relates to thoracic aorta. The assay can be described thus: Vasoconstriction inhibitory action on aorta rings constricted with phenylephrine (Test Example 2). Also on record: species or system Rats (Wistar, 11-week old). The following applies: aorta constricted with phenylephrine (1 µM); for inhibition at 1 µM: Rattus norvegicus, test compound 1 µM, read-out: Vasoconstriction inhibitory action (relaxation ratio) (%). From the text: Rats (Wistar, 11-week old) were bleeded to death and laparotomized to take out the thoracic aorta.

The test system of a further assay is BALB/c female mice. The assay can be described thus: Respiratory tract inflammation suppressing action, OVA-induced (Test Example 6). It is filed as in vivo. The conditions noted are these: orally 30 mg/kg once a day for 5 days; inhalation of 2% OVA; alveoli washed after 24 hours. The protocol: According to the method described in Henderson, W.R., et al., Am. J. Respir. Cric. Care Med., 165(1), 108-116 (2002), suppressing action on bronchial inflammation was confirmed. BALB/c female mice (7-week old) were used for the test, each group consisting of 7 mice, and the control group consisting of 11 or 12 mice. The mice were intraperitoneally administered with ovalbumin (OVA, 100 ng, Sigma) and 1 mg of aluminum hydroxide for initial immunization, and after 2 weeks, they are subcutaneously administered with 10 ng of OVA as additional immunization. After further 1 week, a test compound was dissolved in water containing 0.5% carboxymethylcellulose and orally administered (30 mg/kg) to the test animals once a day for 5 days. The control group was similarly given only with water containing 0.5% carboxymethylcellulose. After 1 hour, the mice were orally inhaled with 2% OVA for 10 minutes to induce a respiratory tract inflammation. Further, the control group, in which the mice were not given with the test compound, was divided into a positive control group (n = 7), in which the mice were inhaled with 2% OVA to induce the reaction, and a negative control group (n = 4 or 5), in which the mice were similarly inhaled with physiological saline. After 24 hours, alveoli in the lungs of the test animals were washed with physiological saline, and the total infiltrated white blood cells (WBC) were counted.

Assay [1] has as its system human neutrophil fraction. The assay can be described thus: Action on increase of intracellular calcium concentration, Fura2-AM, fMLP (Test Example 7). In kind it is cell-based. The conditions noted are these: test compound 1 µM added 3 minutes before fMLP (1 µM), R = F340/F380, without test compound = 100%, read-out: Maximum R value (%). The protocol:
According to the method described in Test Example 1, a neutrophil containing fraction was prepared. Fura2-AM (Sigma) at a final concentration of 3 µM was added to the human neutrophil fraction and the mixture was incubated at 37°C for 1 hour. After centrifugation (250 g for 5 minutes), the supernatant was discarded, and the neutrophils were resuspended in Hanks' Balanced Salt Solution (HBSS, Gibco) to prepare a cell suspension (8 x 10^6/ml) for measurement of intracellular calcium concentration. The cell suspension for measurement of intracellular calcium concentration was left stand at room temperature for 30 minutes. Then, 490 µl of the cell suspension for measurement of intracellular calcium concentration was placed in a cuvette, 10 µl of calcium chloride solution at a final concentration of […] was added to it and the cuvette was set in an intracellular calcium concentration analyzer (CAF110, Nippon Bunko). fMLP (Sigma) solution at a final concentration of 1 µM was added to the cell suspension, and F340 and F380, which are fluorescence intensity at 340 nm and 380 nm, respectively, were measured to obtain an R value (F340/F380) as an index of the intracellular calcium concentration. A test compound (1 µM) was added 3 minutes before the addition of fMLP, and the action on the intracellular calcium concentration was observed. The ratios of the maximum R value obtained with addition of each test compound, based on the maximum R value obtained without addition of test compound and taken as 100%, are shown in Table 10 mentioned below.
On the technique in general: Calcium assays in cells follow changes in intracellular calcium, usually with a dye or a luminescent sensor.

The test system of assay [2] is myosin regulatory light chain. The assay can be described thus: Action on amount of phosphorylated myosin regulatory light chain in the cells (Test Example 1). In kind it is cell-based, human. The following applies: neutrophils of healthy volunteers, reaction with test compound at 25°C for 5 minutes, read-out: Inhibition of myosin regulatory light chain phosphorylation (IC50: µM). In short, it runs like this: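 Neutrophil suspension (5 x 10^6/ml, HBSS) reacted 5 min at 25 °C with test compound at various concentrations. TCA-stopped, urea-extracted and run on SDS-PAGE, then immunoblotted with antibody specific for phosphorylated myosin regulatory light chain, detected by HRP/ECL and quantified by densitometry. Result given as % inhibition of phosphorylation.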

A further assay relates to Neutrophils. The assay can be described thus: Neutrophil migration inhibitory action, Boyden Chamber, FMLP (Test Example 5). It is filed as cell-based, human. The following applies: Homo sapiens, Neutrophil, 0.5 h, FMLP (1 µM), migration at 37°C for 30 minutes; read-out: Neutrophil migration inhibition IC50. In outline:
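Neutrophils from healthy donors' peripheral blood (8 x 10^6/ml) were preincubated 5 min at room temperature with compound. Migrated cells were stained and absorbance read at 595 nm; inhibition (%) was calculated against compound-free wells.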

In assay [3] the test system is ovalbumin-immunized guinea pigs. The assay can be described thus: Respiratory tract constriction suppression action, ovalbumin-induced (Test Example 3). The conditions noted are these: result in words; test medicament given into hind leg vein after induction with 0.3 mg/kg ovalbumin, measured for 15 minutes. It is filed as in vivo, Hartley guinea pigs. The procedure: Four-week old Hartley guinea pigs (male) were immunized by intraperitoneal administration of ovalbumin (Sigma, Grade V) in amounts of 1 mg for each animal on the day on which the experiment was started, 3 mg for each animal after 2 days, and 10 mg for each animal after 4 days. Twelve to fourteen days after the final immunization, the ovalbumin-immunized guinea pigs were anesthetized by intraperitoneal administration of about 40 mg/kg of pentobarbital (Somnopentyl), and the tracheas were taken out. Subsequently, a cannula (SP-110, Natsume) was inserted into each trachea, and one end of the cannula was connected to an artificial respirator (Model-b83, Harvard). The aeration conditions were set at 6 ml per kilogram and 60 times per 1 minute. Further, a cannula for medicament administration (JMS wing needle 23G 3/4) was inserted into a hind leg vein. Myoblock (Organon Technica) was administered in an amount of 0.5 mg/kg from the cannula inserted into the hind leg vein to stop the spontaneous breathing, and after 2 or 3 minutes, 0.3 mg/kg of ovalbumin was administered to induce constriction of respiratory tract. The increase of airway resistance value 2 minutes after the induction (measurement apparatuses: pressure transducer TR-603T, respiratory amplifier AR-601G, and recorder RTA-3100, Nihon Kohden Corp.) was confirmed to be above 80 cm H2O or higher, and then, a solution of a test medicament was administered from the cannula inserted into the hind leg vein, and the airway resistance value was continuously measured for 15 minutes after the administration to determine the effect.

The next assay deals with Japanese white rabbit. Put plainly: Intraocular pressure reducing action (Test Example 4). In kind it is in vivo. The conditions noted are these: Oryctolagus cuniculus, topical; 50 µl of test compound (1% aqueous solution) dropped to the left eye, after 2 hours; read-out: Intraocular pressure reducing action (reduction ratio) (%). The procedure: A Japanese white rabbit having a body weight of about 2 kg was placed in a positioner and naturalized for one week before the experiment. An ophthalmologic local […] (Benoxil) was administered to the left eye, and then intraocular pressure was measured by using a tonometer (Classic 30, Solan). The initial value of the intraocular pressure was measured, then 50 μl of a test compound (1% aqueous solution) was dropped to the left eye, and after 2 hours, the intraocular pressure was measured. The intraocular pressure reducing action of the test compounds is shown in Table 7 mentioned below as ratios (%) of reduction of intraocular pressure based on the initial value of the intraocular pressure.

The subject of assay [4] is myosin light chain phosphorylation enzyme (MLCK). Put plainly: Action on myosin light chain phosphorylation enzyme (MLCK) activity, ELISA (second Test Example 7). The conditions noted are these: result in words. In kind it is biochemical, chicken. The protocol: A myosin light chain phosphorylation enzyme (MLCK) was purified from chicken gizzard smooth muscle by a conventional method (Yoshida, M., et al., J. Biochem., 99, 1027-1036 (1986)). The myosin regulatory light chain as a substrate was purified from the chicken gizzard smooth muscle by a conventional method (Grand, R. J., et al., Biochem. J., 211, 267-272 (1983)). The MLCK activity was measured by ELISA using pLC1 described in Test Example 1 (Sakurada, K., et al., J. Biochem., 115, 18-21 (1994)). […] In a volume of 100 µ1 each of 20% aqueous phosphoric acid solution was added to each well to terminate the enzymatic reaction. Each well was washed with 25 mM Tris/HCl buffer (TTBS) containing 0.1% Tween 20, and then 100 µl each of pLC1 described in Test Example 1 was added to each well and incubated at room temperature for 90 minutes. Each well was washed with TTBS, and then 100 µl of the HRP-labeled rabbit anti-mouse IgG antibodies (Bio-Rad) were added to each well and incubated at room temperature for 90 minutes. […] 50 µl of 4 N sulfuric acid was added to each well to terminate the reaction, and then absorbance was measured by using an immunoplate reader (Bio-Rad).
(In an ELISA, binding on a coated surface is turned into a signal by an enzyme label.)

Setting [5] is: Homo sapiens, Neutrophil, 5 min.

The structures appear in SMILES notation. pIC50: −log10 of the molar value. Where a name gives a salt, the structure may show the parent alone. Read-outs that look alike come from different tables or passages of the source.

What is called IC50 is the midpoint of a concentration-inhibition curve. In the case of `Cl.NCCCN(CCCc1ccccc1)S(=O)(=O)c1cccc2cnccc12` [Example 1, N-[(5-Isoquinolyl)sulfonyl]-N-(3-phenylpropyl)-1,3-propylenediamine hydrochloride], the inhibition at 1 µM in the assay with thoracic aorta came to 73.8%. The “Total WBC count x 10E5/ml/mouse” value with BALB/c female mice is reported as 300 x 10E5/ml/mouse. Also, the activity at 1 µM in assay [1] is 98%. Further, the IC50 in assay [2] (setting [5]) turned out to be 0.8 µM. Also, in the assay with Neutrophils, the pIC50 is at least 6.00.

As to `c1cc(NC2CCCNC2)c2ccncc2c1` (racemic) [Example 29, 3-N-(5-Isoquinolyl)aminopiperidine hydrochloride], the “constriction of respiratory tract (airway resistance value)” value in assay [3] is given as “significantly improved the constriction of respiratory tract”. Moreover, the inhibition in vivo at 1 % with Japanese white rabbit was determined as 18.8%. The “inhibition of MLCK” value in assay [4] is on record as “did not inhibit MLCK”. In addition, the 50% inhibitory concentration (IC50) was at most 40 µM in assay [2] (setting [5]) and at most 20 µM in assay [2] (hydrochloride). In addition, the pIC50 in the assay on Neutrophils was at least 4.40.

`Cl.NCCN(CCS(=O)(=O)c1ccccc1)S(=O)(=O)c1cccc2cnccc12` [Example 7, N-[(5-Isoquinolyl)sulfonyl]-N-[2-(phenylsulfonyl)ethyl]ethylenediamine hydrochloride]: the inhibition at 1 µM with thoracic aorta came to 64.3%. For the same compound, the “Total WBC count x 10E5/ml/mouse” value with BALB/c female mice was determined as 400 x 10E5/ml/mouse. Also, the activity at 1 µM in assay [1] came to 101%. The IC50 in assay [2] (setting [5]) was 30 µM.

With `Cl.NCCCOc1cccc2c(N)nccc12` [Example 10, 3-[(1-Amino-5-isoquinolyl)oxy]propylamine hydrochloride], the “Total WBC count x 10E5/ml/mouse” value in the assay on BALB/c female mice worked out at 150 x 10E5/ml/mouse. Besides, the activity at 1 µM in assay [1] turned out to be 99%. Further, the IC50 in assay [2] (setting [5]) came out at 10 µM. Further, the pIC50 in the assay with Neutrophils was 5.00 to 6.00.

Turning to `Cl.NCCCN(CCc1cccs1)S(=O)(=O)c1cccc2cnccc12` [Example 2, N-[(5-Isoquinolyl)sulfonyl]-N-[2-(2-thienyl)ethyl]-1,3-propylenediamine hydrochloride], the vasoconstriction inhibitory action entry in the assay on thoracic aorta (result in words) is recorded as “significant vasoconstriction inhibitory action”. In addition, the “constriction of respiratory tract (airway resistance value)” value in assay [3] is on record as “significantly improved the constriction of respiratory tract”. For the same compound, in the assay with BALB/c female mice, the “Total WBC count x 10E5/ml/mouse” value is reported as 200 x 10E5/ml/mouse. Moreover, the activity at 1 µM in assay [1] amounted to 99%. The IC50 in assay [2] (setting [5]) worked out at 0.8 µM. Further, the pIC50 with Neutrophils is 5.00 to 6.00.

Source of the values: patent EP1541559A1, “5-SUBSTITUTED ISOQUINOLINE DERIVATIVE” (Asahi Kasei Pharma Corporation, priority 2002, dated 2004).
